We go through one substance from publication PMC8968665, “Verteporfin is a substrate-selective γ-secretase inhibitor that binds the amyloid precursor protein transmembrane domain” (The Journal of Biological Chemistry, 2022).

Data set [1] can be described thus: Verteporfin aggregation and LMPG micelle size (DLS, 1D 1H NMR). It is filed as physicochemical. The method, then: Samples were made according to NMR sample conditions. Solutions were first filtered with a 0.2 μm syringe filter then centrifuged at […] to remove insoluble debris. The solution was then added to the inner chamber of the disposable DLS cuvette. The disposable DLS cuvette was capped and loaded in the DLS instrument. Experiments were carried out at 25 °C. The DLS software (Dynamics 7.5 software; Wyatt Technologies) calculates an apparent hydrodynamic radius (Rh) via the Stokes–Einstein equation (Equation 6):(6) Rh=kT/6πηDt where k is Boltzmann’s constant, T is the absolute temperature, η is sample viscosity, and Dt is the diffusion coefficient. The apparent molecular weight of the detergent or verteporfin particles was calculated in the Dynamics software, as based on the measured apparent radius of hydration, using the assumption that the density of the particle was similar to that of a globular protein.

Data set [2] relates to T1, C99.
T1 construct: the transmembrane 99 residue C-terminal (C99) domain; made in house; host or cells: E. coli BL21DE3, pET21b
Kind of data set: Glutaraldehyde cross-linking of verteporfin–C99 mixtures. Also noted: species or system human. Conditions: LMPG micelles, versus DMSO control, n=3. As for the experimental part: C-terminally His-tagged C99 was expressed from E. coli as mentioned above, and the sample was eluted into a buffer containing 0.1% w/v LMPG, 350 mM Imidazole, 100 mM NaCl, pH 7.8. The protein sample was buffer swapped into GA X-linking buffer containing 0.25% w/v LMPG, 250 mM imidazole, 100 mM NaCl, pH 7.8, and the protein was concentrated to a stock of 300 μM C99. Protein stocks were either used right away or flash frozen in LN2 and stored at −80 °C until further use.
On the day of the experiment, fresh glutaraldehyde (from 25% w/v ampoule) was used to prepare serial dilutions and stored on ice. Reaction volumes were set at 50 μl, containing 30 μM C99, 25 mM Imidazole, 100 mM NaCl, pH 7.8, and 2.5% w/v LMPG. For a typical GA reaction setup, the following components were added to Eppendorf tubes in this specific order: 5 μl of 300 μM C99 was added to the bottom of the tube, followed by 6 μl of 20% w/w LMPG solution, then the sample was diluted to 50 μl using 39 μl of GA X-linking buffer. The sample was mixed by vortex and allowed to sit for at least 30 min. After incubation, 1 μl of Verteporfin stock (typically 10 mM in DMSO) was added to the mixture, vortexed, and allowed to incubate for at least another 30 min in the dark. […] Then, SDS loading buffer was added directly to the reaction tubes, and the samples were visualized using SDS-PAGE and analyzed by densitometry using ImageJ. […]

In data set [3] the test system is T2, C99.
T2 construct: the transmembrane 99 residue C-terminal (C99) domain; His tag (either the C-terminal hexa-His that is kept, or the N-terminal His of C99-NT2 removed by thrombin); made in house; host or cells: E. coli BL21DE3
Kind of data set: Native ion mobility–mass spectrometry of C99–verteporfin mixtures. Further details: species or system human. From the text:
IM-MS data were collected using a Synapt G2 HDMS IM-Q-ToF mass spectrometer (Waters), with a direct infusion nESI source set to positive ion mode. The instrument settings were tuned to generate intact C99–verteporfin complex ions while completely dissociating them from detergent LMPG micelles, including appropriately tuned settings for the sampling cone 80 V, trap cell accelerating potential 80 V, and the transfer cell accelerating potential 70 V. The trapping cell wave velocity and height were 116 m/s and 0.1 V, respectively. The IMS wave velocity and height were 250 m/s and 15 V, respectively. The transfer cell wave velocity and height were 300 m/s and 10 V. Prior to analysis, C99 in LMPG micelles at a protein concentration of 20 μM C99 and 100X CMC LMPG or DDMB samples were prepared by incubating 20 μM C99 with 100X CMC LMPG for 30 min, then titrating in DMSO or Verteporfin and incubating in the dark overnight. Verteporfin-binding buffer conditions were 200 mM Ammonium Acetate at pH 4.5.

“Also recorded” adds a separate entry of the source.

On to verteporfin, for which the “effect on LMPG micelle particle size (DLS)” value in data set [1] (0 to 200 μM verteporfin, 2.5% LMPG, n = 3) is listed as “only modest effects on micelle particle size; also recorded: insensitive”. The “state of verteporfin in micelle-free aqueous solution (1H NMR line width)” value in data set [1] (100 μM verteporfin, LMPG below CMC, pH 6.5) is recorded as “aggregate formation”. The “LMPG concentration at which soluble verteporfin aggregates are fully dispersed (DLS)” value in data set [1] (100 μM verteporfin, n = 3) came out at 50 mM. The “change in C99 oligomeric state (cross-linking)” value in data set [2] is given as “no change in oligomeric state; also recorded: no increase in higher-order C99 species”. Moreover, the “change in C99 oligomeric state (IM-MS)” value in data set [3] (LMPG and DDMB micelles, 0–50 μM verteporfin, low detergent conditions, n = 3) is recorded as “only a marginal increase in the population of dimeric C99; also recorded: does not undergo any significant change in oligomeric state”. Besides, the “covalent modification of C99 (mass by IM-MS)” value in data set [3] (samples kept in the dark) is “no covalent modification”.
